Patent US10030006B2, “Coumarin based Hsp90 inhibitors with urea and ether substituents” (University of Kansas, priority 2013, dated 2018)
Like-named read-outs stand apart in the source and are kept apart here. Blank lines part the entries; values can stand above or below the compound they belong to.

Legend:
Format in all cases: cell-based
MRC5 = assay: Anti-proliferation assay, MRC5 (normal)
Description: (§1) Cells were maintained in a 1:1 mixture of Advanced DMEM/F12 (Gibco) supplemented with non-essential amino acids, L-glutamine (2 mM), streptomycin (500 μg/mL), penicillin (100 units/mL), and 10% FBS. Cells were grown to confluence in a humidified atmosphere (37° C., 5% CO2), seeded (2000/well, 100 μL) in 96-well plates, and allowed to attach overnight. Compound at varying concentrations in DMSO (1% DMSO final concentration) was added, and cells were returned to the incubator for 72 h. At 72 h, the number of viable cells was determined using an MTS/PMS cell proliferation kit (Promega) per the manufacturer's instructions. Cells incubated in 1% DMSO were used at 100% proliferation, and values were adjusted accordingly. IC50 values were calculated from separate experiments performed in triplicate using GraphPad Prism.

HMLE = assay: Anti-proliferation assay, HMLE (normal)
Description: as §1

[1] = system: MCF-7 (estrogen receptor positive breast cancer cells); assay: Anti-proliferation assay (MTS/PMS, 72 h), MCF-7
Description: as §1
(§2) The anti-proliferative activity of these compounds is evaluated against two breast cancer cell lines, SKBr3 (estrogen receptor negative, Her2 over-expressing breast cancer cells) and MCF-7 (estrogen receptor positive breast cancer cells).

JMAR = assay: Anti-proliferation assay, JMAR; details: HSNCC
Description: as §1

PC-3 = assay: Anti-proliferation assay, PC-3; details: Prostate Cancer
Description: as §1

DRO81-1 = assay: Anti-proliferation assay, DRO81-1; details: Thyroid
Description: as §1

HCT-116 = assay: Anti-proliferation assay, HCT-116; details: Table 9, non-aryl ureas
Description: as §1

A-549 = assay: Anti-proliferation assay, A-549
Description: as §1

MDA1986 = assay: Anti-proliferation assay, MDA1986; details: HSNCC
Description: as §1

[2] = system: SKBr3 (estrogen receptor negative, Her2 over-expressing breast cancer cells); assay: Anti-proliferation assay (MTS/PMS, 72 h), SKBr3
Description: as §1, §2

MDAMB231 = assay: Anti-proliferation assay, MDAMB231; details: Tri-Neg
Description: as §1

[3] = Table 9, non-aryl ureas, Breast Cancer, read-out: IC50 MCF-3
[4] = Table 9, non-aryl ureas, Breast Cancer, read-out: IC50 SKBr3
[5] = Homo sapiens, MRC5, Table 6, substituted phenyl ureas
[6] = HMLE, Table 6, substituted phenyl ureas
[7] = Homo sapiens, MCF7, Table 6, substituted phenyl ureas, Breast Cancer, read-out: IC50 MCF-3
[8] = JMAR, Table 6, substituted phenyl ureas
[9] = Homo sapiens, PC-3, Table 6, substituted phenyl ureas
[10] = Table 6, substituted phenyl ureas
[11] = Homo sapiens, A549, Table 6, substituted phenyl ureas
[12] = MDA1986, Table 6, substituted phenyl ureas
[13] = Homo sapiens, SK-BR-3, Table 6, substituted phenyl ureas, Breast Cancer, read-out: IC50 SKBr3
[14] = Homo sapiens, MDA-MB-231, Table 6, substituted phenyl ureas
[15] = Homo sapiens, MCF7, Table 4, alkylamino analogues, read-out: MCF-7
[16] = Homo sapiens, SK-BR-3, Table 4, alkylamino analogues, read-out: SKBr3
[17] = Table 3, cycloamine analogues, read-out: MCF-7
[18] = Table 3, cycloamine analogues, read-out: SKBr3

SMILES: Cc1c(OC2CCN(C)CC2)ccc2cc(NC(=O)NC3CCCC3)c(=O)oc12 [drawing 167]
IC50 (MRC5; Table 9, non-aryl ureas): > 25 µM
IC50 (HMLE; Table 9, non-aryl ureas): > 25 µM

SMILES: Cc1c(OC2CCN(C)CC2)ccc2cc(NC(=O)NC3CCCCC3)c(=O)oc12 [drawing 155]
IC50 [1, 3]: 3.84 ± 0.31 µM
IC50 (JMAR; Table 9, non-aryl ureas): > 25 µM
IC50 (PC-3; Table 9, non-aryl ureas): 1.67 µM
IC50 (DRO81-1; Table 9, non-aryl ureas): > 25 µM
IC50 (HCT-116): 9.21 ± 6.54 µM
IC50 (A-549; Table 9, non-aryl ureas): > 100 µM
IC50 (MDA1986; Table 9, non-aryl ureas): > 25 µM
IC50 [2, 4]: 3.83 ± 0.33 µM
IC50 (MDAMB231; Table 9, non-aryl ureas): > 25 µM

SMILES: Cc1c(OC2CCN(C)CC2)ccc2cc(NC(=O)NC(C)(C)C)c(=O)oc12 [drawing 170]
IC50 (MRC5; Table 9, non-aryl ureas): 21.1 µM
IC50 (HMLE; Table 9, non-aryl ureas): > 25 µM

SMILES: Cc1c(OC2CCN(C)CC2)ccc2cc(NC(=O)NCc3ccccc3)c(=O)oc12 [drawing 172]
IC50 (MRC5; Table 9, non-aryl ureas): 20.9 µM
IC50 (HMLE; Table 9, non-aryl ureas): > 25 µM

SMILES: Cc1c(OC2CCN(C)CC2)ccc2cc(NC(=O)NC34CC5CC(CC(C5)C3)C4)c(=O)oc12 [drawing 169]
IC50 (MRC5; Table 9, non-aryl ureas): 3.8 µM
IC50 (HMLE; Table 9, non-aryl ureas): > 25 µM

SMILES: Cc1c(OC2CCN(C)CC2)ccc2cc(NC(=O)N(Cc3ccccc3)Cc3ccccc3)c(=O)oc12 [drawing 174]
IC50 (MRC5; Table 9, non-aryl ureas): 20.9 µM
IC50 (HMLE; Table 9, non-aryl ureas): 7.1 µM

SMILES: CCCNCCCOc1ccc2cc(NC(=O)c3ccc(O)c(CC=C(C)C)c3)c(=O)oc2c1C [Compound 68d, 4-hydroxy-N-(8-methyl-2-oxo-7-(3-(propylamino)propoxy)-2H-chromen-3-yl)-3-(3-methylbut-2-en-1-yl)benzamide]
IC50 [1, 15]: 0.98 µM
IC50 [2, 16]: 0.99 ± 0.03 µM

SMILES: COc1ccc(C(=O)Nc2cc3ccc(OC4CCN(C)CC4)c(C)c3oc2=O)cc1CC=C(C)C [Compound 16, 4-methoxy-N-(8-methyl-7-(1-methylpiperidin-4-yloxy)-2-oxo-2H-chromen-3-yl)-3-(3-methylbut-2-enyl)benzamide]
IC50 ([1]; Homo sapiens, MCF7, Table 1, modified benzamide coumarin derivatives, read-out: MCF-7): 1.58 ± 0.09 µM
IC50 ([2]; Homo sapiens, SK-BR-3, Table 1, modified benzamide coumarin derivatives, read-out: SKBr3): 1.41 ± 0.2 µM

SMILES: CC(=O)Oc1ccc(C(=O)Nc2cc3ccc(OCCC4CCCCN4)c(C)c3oc2=O)cc1CC=C(C)C (stereo not drawn)
IC50 [1, 17]: 0.71 ± 0.03 µM
IC50 [2, 18]: 0.64 ± 0.06 µM

SMILES: CC(C)=CCc1cc(C(=O)Nc2cc3ccc(OCC4CCCN(C)C4)c(C)c3oc2=O)ccc1O (stereo not drawn)
IC50 [1, 17]: 2.64 ± 0.45 µM
IC50 [2, 18]: 1.3 ± 0.63 µM

The next lines start with results.

IC50 [1, 7]: 0.28 µM
IC50 (PC-3; [9]): 0.043 µM
IC50 (A-549; [11]): 0.046 µM
IC50 [2, 13]: 0.26 µM
IC50 (MDAMB231; [14]): 0.55 µM
SMILES: Cc1c(OC2CCN(C)CC2)ccc2cc(NC(=O)Nc3cccc(C(F)(F)F)c3)c(=O)oc12 [m-CF3, 1-(8-methyl-7-((1-methylpiperidin-4-yl)oxy)-2-oxo-2H-chromen-3-yl)-3-(3-(trifluoromethyl)phenyl)urea]
IC50 (MRC5; [5]): 1.6 µM
IC50 (HMLE; [6]): 16.8 µM
IC50 (JMAR; [8]): 1.7 µM
IC50 (DRO81-1; [10]): 7.3 µM
IC50 (MDA1986; [12]): 0.15 µM

IC50 [1, 3]: 3.83 ± 0.33 µM
IC50 (PC-3; Table 9, non-aryl ureas): 2.16 ± 1.17 µM
IC50 (HCT-116): 7.87 ± 7.97 µM
IC50 (A-549; Table 9, non-aryl ureas): 1.24 ± 0.94 µM
IC50 [2, 4]: 2.39 ± 0.35 µM
IC50 (MDAMB231; Table 9, non-aryl ureas): 0.65 µM
SMILES: Cc1c(OC2CCN(C)CC2)ccc2cc(NC(=O)NC3CCCC3)c(=O)oc12 [drawing 154]
IC50 (JMAR; Table 9, non-aryl ureas): > 25 µM
IC50 (DRO81-1; Table 9, non-aryl ureas): 8.8 µM
IC50 (MDA1986; Table 9, non-aryl ureas): > 25 µM

IC50 [1, 7]: 0.28 µM
IC50 (PC-3; [9]): 2.16 µM
IC50 (A-549; [11]): 1.02 µM
IC50 [2, 13]: 0.19 µM
IC50 (MDAMB231; [14]): 0.28 µM
SMILES: Cc1c(OC2CCN(C)CC2)ccc2cc(NC(=O)Nc3cccc(Oc4ccccc4)c3)c(=O)oc12 [m-phenoxyl, 1-(8-methyl-7-((1-methylpiperidin-4-yl)oxy)-2-oxo-2H-chromen-3-yl)-3-(3-phenoxyphenyl)urea]
IC50 (MRC5; [5]): 2.2 µM
IC50 (HMLE; [6]): 5.2 µM
IC50 (JMAR; [8]): 2.4 µM
IC50 (DRO81-1; [10]): 3.1 µM
IC50 (MDA1986; [12]): 0.57 µM

IC50 [1, 17]: 1.2 ± 0.12 µM
IC50 [2, 18]: 1.01 ± 0.03 µM
SMILES: CC(C)=CCc1cc(C(=O)Nc2cc3ccc(OCCCN4CCN(C)CC4)c(C)c3oc2=O)ccc1O [drawing 143]

IC50 [1, 15]: 1.31 ± 0.39 µM
IC50 [2, 16]: 1.6 ± 0.02 µM
SMILES: CC(C)=CCc1cc(C(=O)Nc2cc3ccc(OCCCN(C(C)C)C(C)C)c(C)c3oc2=O)ccc1O [Compound 68i, N-(7-(3-(diisopropylamino)propoxy)-8-methyl-2-oxo-2H-chromen-3-yl)-4-hydroxy-3-(3-methylbut-2-en-1-yl)benzamide]
